Measurements from patent US8476298B2 (Exelixis, Inc., priority 2003, dated 2013).

Experiments:
c-Kit kinase = c-Kit kinase (Homo sapiens, UniProt P10721); test: c-Kit AlphaScreen kinase assay; format: biochemical;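 further: c-Kit kinase phosphorylating biotinylated poly(Glu,Tyr), ATP near its KM, 1 h reaction at ambient temperature, AlphaScreen chemiluminescence with streptavidin donor and anti-phosphotyrosine acceptor beads, 10-point inhibitor titration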
[1] = molecular target: T1, Flt-4 (baculovirus expressed human Flt-4 kinase domain D725-R1298) (Homo sapiens, UniProt P35916); test: flt-4 Alphascreen Tyrosine Kinase assay; format: biochemical; conditions: read-out: flt4 IC50;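 further: AlphaScreen chemiluminescence read-out of biotinylated poly(Glu,Tyr) 4:1 phosphorylation via streptavidin donor and PY100 anti-phosphotyrosine acceptor beads, ATP near KM, 1 hr kinase reaction, 10-point dose-response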
T1 construct: human Flt-4 kinase domain D725-R1298; host or cells: baculovirus expression
Experimental: (§1) Kinase activity and compound inhibition are investigated using one or more of the three assay formats described below. The ATP concentrations for each assay are selected to be close to the Michaelis-Menten constant (KM) for each individual kinase. Dose-response experiments are performed at 10 different inhibitor concentrations in a 384-well plate format. […] Typically H is close to unity. c-Met Assay
Biochemical activity for flt-4 was assessed using an Alphascreen Tyrosine Kinase protocol. AlphaScreen™ (Perkin Elmer) technology is a proximity assay employing microparticles. Singlet oxygen derived from a donor bead following laser excitation results in chemiluminescence when in proximity (100 Å) to an acceptor bead due to biomolecular interactions. For the Flt-4 assay, donor beads coated with streptavidin and acceptor beads coated with PY100 anti-phosphotyrosine antibody were used (Perkin Elmer). Biotinylated poly(Glu,Tyr) 4:1 (Perkin Elmer) was used as the substrate. Substrate phosphorylation was measured by addition of donor/acceptor beads by chemiluminescence following donor-acceptor bead complex formation. […] Reaction mixtures were incubated for 1 hr at ambient temperature. […] After 2-16 hr incubation at ambient temperature plates were read using an AlphaQuest reader (Perkin Elmer).

[2] = molecular target: T2, c-Met (baculovirus expressed human c-Met kinase domain P948-S1343) (Homo sapiens, UniProt P08581); test: c-Met Luciferase-Coupled Chemiluminescent Kinase assay (LCCA); format: biochemical;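 further: kinase activity read as percent ATP left after reaction, by luciferase-luciferin chemiluminescence, with 1 µM ATP and 1 µM poly-EY substrate, 2 h at ambient temperature, 10-point dose-response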
T2 construct: human c-Met kinase domain P948-S1343; host or cells: baculovirus expression
Experimental: as §1
c-Met biochemical activity was assessed using a Luciferase-Coupled Chemiluminescent Kinase assay (LCCA) format as described above. Again, kinase activity was measured as the percent ATP remaining following the kinase reaction. Remaining ATP was detected by luciferase-luciferin-coupled chemiluminescence. Specifically, the reaction was initiated by mixing test compounds, 1 μM ATP, 1 μM poly-EY and 10 nM c-Met (baculovirus expressed human c-Met kinase domain P948-S1343) in a 20 uL assay buffer (20 mM Tris-HCL pH7.5, 10 mM MgCl2, 0.02% Triton X-100, 100 mM DTT, 2 mM MnCu2). The mixture is incubated at ambient temperature for 2 hours after which 20 uL luciferase-luciferin mix is added and the chemiluminescent signal read using a Wallac Victor^2 reader.

[3] = molecular target: T3, Flt-3 (baculovirus expressed human Flt-3 kinase domain R571-S993) (Homo sapiens, UniProt P36888); test: biochemical; conditions: read-out: flt3 IC50;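 further: Luciferase-coupled chemiluminescent kinase assay, activity read as percent ATP left after a 3 h reaction at room temperature, ATP near KM, 10-point dose-response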
T3 construct: human Flt-3 kinase domain R571-S993; host or cells: baculovirus expression
T3 sequence (P36888 571-993): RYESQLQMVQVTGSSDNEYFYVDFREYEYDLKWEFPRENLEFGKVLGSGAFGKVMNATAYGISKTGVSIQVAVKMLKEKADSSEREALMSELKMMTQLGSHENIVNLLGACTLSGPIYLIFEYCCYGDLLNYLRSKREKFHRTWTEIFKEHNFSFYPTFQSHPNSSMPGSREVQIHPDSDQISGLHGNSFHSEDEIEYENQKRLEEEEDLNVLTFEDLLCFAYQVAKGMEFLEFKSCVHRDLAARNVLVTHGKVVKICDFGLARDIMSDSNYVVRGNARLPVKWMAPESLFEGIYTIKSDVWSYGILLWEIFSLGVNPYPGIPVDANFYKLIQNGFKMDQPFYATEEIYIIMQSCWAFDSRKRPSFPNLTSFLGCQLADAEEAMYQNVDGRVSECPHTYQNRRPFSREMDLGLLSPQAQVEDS

[4] = molecular target: T4, KDR (baculovirus expressed human KDR kinase domain D807-V1356) (Homo sapiens, UniProt P35968); test: biochemical;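 further: Luciferase-coupled chemiluminescent kinase assay, activity read as percent ATP left after 4 h reaction at ambient temperature, ATP near KM, 10-point dose-response in 384-well plates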
T4 construct: human KDR kinase domain D807-V1356; host or cells: baculovirus expression
T4 sequence (P35968 807-1356): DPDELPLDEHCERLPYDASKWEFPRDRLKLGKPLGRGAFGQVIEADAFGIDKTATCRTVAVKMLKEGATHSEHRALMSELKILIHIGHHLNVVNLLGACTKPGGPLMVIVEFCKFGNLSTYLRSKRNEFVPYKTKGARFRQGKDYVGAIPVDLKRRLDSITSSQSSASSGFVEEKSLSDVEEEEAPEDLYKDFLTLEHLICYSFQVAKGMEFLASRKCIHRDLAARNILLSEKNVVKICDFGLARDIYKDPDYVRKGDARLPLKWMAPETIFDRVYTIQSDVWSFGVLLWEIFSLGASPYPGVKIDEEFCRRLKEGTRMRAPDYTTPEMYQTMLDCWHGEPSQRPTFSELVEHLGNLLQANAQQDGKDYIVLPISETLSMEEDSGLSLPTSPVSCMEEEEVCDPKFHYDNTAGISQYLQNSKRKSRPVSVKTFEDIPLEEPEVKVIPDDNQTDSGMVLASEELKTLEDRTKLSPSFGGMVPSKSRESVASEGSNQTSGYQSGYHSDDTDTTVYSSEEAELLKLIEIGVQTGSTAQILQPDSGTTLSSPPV

c-Kit kinase, sequence (P10721 26-976): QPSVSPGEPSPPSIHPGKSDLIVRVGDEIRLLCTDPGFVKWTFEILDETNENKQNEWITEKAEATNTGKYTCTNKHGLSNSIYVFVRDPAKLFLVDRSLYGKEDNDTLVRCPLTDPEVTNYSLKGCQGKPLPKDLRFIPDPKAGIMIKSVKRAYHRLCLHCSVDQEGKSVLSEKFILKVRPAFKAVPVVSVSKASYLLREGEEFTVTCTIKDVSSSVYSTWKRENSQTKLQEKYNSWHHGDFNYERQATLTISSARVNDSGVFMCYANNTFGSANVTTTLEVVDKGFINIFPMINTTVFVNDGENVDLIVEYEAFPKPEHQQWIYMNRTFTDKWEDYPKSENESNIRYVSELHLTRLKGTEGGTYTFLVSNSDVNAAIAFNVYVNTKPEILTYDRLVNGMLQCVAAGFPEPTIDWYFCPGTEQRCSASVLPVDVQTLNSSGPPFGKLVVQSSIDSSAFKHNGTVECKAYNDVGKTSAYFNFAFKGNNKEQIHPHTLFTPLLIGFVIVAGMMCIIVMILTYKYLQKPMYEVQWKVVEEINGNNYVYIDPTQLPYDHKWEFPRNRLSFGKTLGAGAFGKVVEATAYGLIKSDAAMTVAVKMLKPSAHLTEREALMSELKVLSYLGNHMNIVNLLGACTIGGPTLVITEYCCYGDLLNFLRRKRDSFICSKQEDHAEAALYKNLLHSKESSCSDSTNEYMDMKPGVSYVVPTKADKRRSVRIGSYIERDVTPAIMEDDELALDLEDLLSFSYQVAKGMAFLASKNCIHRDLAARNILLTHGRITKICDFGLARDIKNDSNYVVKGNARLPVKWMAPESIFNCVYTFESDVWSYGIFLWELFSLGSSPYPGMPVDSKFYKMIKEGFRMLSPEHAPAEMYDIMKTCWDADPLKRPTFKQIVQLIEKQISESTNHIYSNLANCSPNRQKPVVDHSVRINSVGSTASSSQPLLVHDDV
T2 sequence (P08581 1011-1343 limits assumed): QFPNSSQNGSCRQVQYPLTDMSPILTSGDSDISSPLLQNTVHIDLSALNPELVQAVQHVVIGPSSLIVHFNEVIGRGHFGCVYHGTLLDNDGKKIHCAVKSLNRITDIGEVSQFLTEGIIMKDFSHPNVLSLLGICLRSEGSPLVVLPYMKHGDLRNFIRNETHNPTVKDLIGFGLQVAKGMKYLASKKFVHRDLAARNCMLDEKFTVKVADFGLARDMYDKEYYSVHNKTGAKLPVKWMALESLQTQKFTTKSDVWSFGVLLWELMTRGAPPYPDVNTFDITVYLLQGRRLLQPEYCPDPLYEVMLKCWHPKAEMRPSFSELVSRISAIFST
T1 sequence (P35916 725-1298 isoform P35916-1): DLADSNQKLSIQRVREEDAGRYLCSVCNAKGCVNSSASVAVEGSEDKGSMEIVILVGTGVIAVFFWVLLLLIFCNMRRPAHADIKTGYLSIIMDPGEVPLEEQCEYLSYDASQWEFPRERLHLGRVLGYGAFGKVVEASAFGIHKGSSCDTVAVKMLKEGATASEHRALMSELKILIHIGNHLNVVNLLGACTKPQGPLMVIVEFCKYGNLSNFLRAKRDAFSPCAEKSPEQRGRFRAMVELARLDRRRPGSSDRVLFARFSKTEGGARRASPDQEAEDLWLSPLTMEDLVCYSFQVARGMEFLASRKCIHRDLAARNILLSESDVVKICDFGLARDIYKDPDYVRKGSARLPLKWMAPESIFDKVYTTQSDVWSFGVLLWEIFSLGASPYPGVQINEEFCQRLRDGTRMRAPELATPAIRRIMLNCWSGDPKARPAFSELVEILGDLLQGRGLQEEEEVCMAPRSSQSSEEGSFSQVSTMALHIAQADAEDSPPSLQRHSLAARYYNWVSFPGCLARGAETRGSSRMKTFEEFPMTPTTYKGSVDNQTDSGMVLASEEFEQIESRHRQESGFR

`COc1cc2c(Oc3ccc(NC(=O)C4(C(=O)Nc5ccc(F)cc5)CC4)cc3F)ccnc2cc1OCC1CCN(C)CC1` [Example 334, N-{3-fluoro-4-[(6-(methyloxy)-7-{[(1-methylpiperidin-4-yl)methyl]oxy}quinolin-4-yl)oxy]phenyl}-N′-(4-fluorophenyl)cyclopropane-1,1-dicarboxamide] showed an IC50 (c-Kit kinase) of under 0.05 µM, an IC50 [1] of under 0.05 µM and an IC50 [2] of under 0.05 µM. For the same compound, the IC50 [3] was under 0.05 µM and the IC50 [4] was under 0.05 µM.
With `CCN(CC)CCCOc1cc2nccc(Oc3ccc(NC(=O)C4(C(=O)Nc5ccc(F)cc5)CC4)cc3F)c2cc1OC` [Example 336, N-(4-{[7-{[3-(diethylamino)propyl]oxy}-6-(methyloxy)quinolin-4-yl]oxy}-3-fluorophenyl)-N′-(4-fluorophenyl)cyclopropane-1,1-dicarboxamide] the IC50 (c-Kit kinase) was under 0.05 µM, the IC50 [1] was under 0.05 µM and the IC50 [2] was under 0.05 µM. The IC50 [3] was under 0.05 µM and the IC50 [4] was under 0.05 µM.
Work on `COc1cc2nccc(Oc3cc(Cl)c(NC(=O)C4(C(=O)Nc5ccc(F)cc5)CC4)cc3F)c2cc1OC` [Example 337, N-(4-{[6,7-bis(methyloxy)quinolin-4-yl]oxy}-2-chloro-5-fluorophenyl)-N′-(4-fluorophenyl)cyclopropane-1,1-dicarboxamide] yielded an IC50 (c-Kit kinase) of 0.05 to 0.5 µM, an IC50 [1] of 0.5 to 5 µM and an IC50 [2] of under 0.05 µM. For the same compound, the IC50 [3] was 0.5 to 5 µM and the IC50 [4] was 0.05 to 0.5 µM.
`COc1cc2c(Oc3ccc(NC(=O)[C@@]4(C(=O)Nc5ccc(F)cc5)C[C@H]4C)cc3F)ccnc2cc1OCCCN1CCOCC1` [Example 342, (1S,2R)-N-[3-fluoro-4-({6-(methyloxy)-7-[(3-morpholin-4-ylpropyl)oxy]quinolin-4-yl}oxy)phenyl]-N′-(4-fluorophenyl)-2-methylcyclopropane-1,1-dicarboxamide] gave an IC50 (c-Kit kinase) of 0.05 to 0.5 µM, an IC50 [1] of under 0.05 µM and an IC50 [2] of under 0.05 µM. It also gave an IC50 [3] of under 0.05 µM and an IC50 [4] of under 0.05 µM.
`COc1cc2c(Oc3ccc(NC(=O)[C@]4(C(=O)Nc5ccc(F)cc5)C[C@H]4C)cc3F)ccnc2cc1OCCCN1CCOCC1` [Example 343, (1R,2R)-N-[3-fluoro-4-({6-(methyloxy)-7-[(3-morpholin-4-ylpropyl)oxy]quinolin-4-yl}oxy)phenyl]-N′-(4-fluorophenyl)-2-methylcyclopropane-1,1-dicarboxamide] gave an IC50 (c-Kit kinase) of under 0.05 µM, an IC50 [1] of under 0.05 µM and an IC50 [2] of under 0.05 µM. It also gave an IC50 [3] of under 0.05 µM and an IC50 [4] of under 0.05 µM.
